In experiment [1] the target is T1, PfCK2α (protein kinase CK2 catalytic α subunit), PfCK2αD179S (Plasmodium falciparum, UniProt Q8IIR9, D179S).
T1 construct: gene PF3D7_1108400; Ile12 to Ser335 (catalytic domain), hexa-histidine tag at C-terminus
T1 sequence (Q8IIR9 12-335 D179S): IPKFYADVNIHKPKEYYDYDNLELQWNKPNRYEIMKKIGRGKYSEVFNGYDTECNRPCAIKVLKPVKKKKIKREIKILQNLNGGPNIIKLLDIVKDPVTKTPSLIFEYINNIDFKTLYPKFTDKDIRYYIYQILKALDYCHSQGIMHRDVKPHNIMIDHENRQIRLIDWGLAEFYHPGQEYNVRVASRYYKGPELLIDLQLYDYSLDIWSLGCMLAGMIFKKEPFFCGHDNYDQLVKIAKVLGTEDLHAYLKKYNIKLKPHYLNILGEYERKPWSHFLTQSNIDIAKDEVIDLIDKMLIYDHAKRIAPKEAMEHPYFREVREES
Description: co-crystal structure at […] Å without Mg2+; ITC (KD […] without Mg2+, […] with […] Mg2+). In kind it is binding.

Experiment [2] deals with T2, PfCK2 (PfCK2α, protein kinase CK2 catalytic subunit) (Plasmodium falciparum, UniProt Q8IIR9).
T2 construct: gene PF3D7_1108400; Ile12 to Ser335 of PfCK2α
Description: radiometric peptide kinase assay with γ[…]-ATP ([…] ATP). In kind it is biochemical.

Compound `Nc1ncnc2c1ncn2[C@@H]1O[C@H](COP(=O)(O)OP(=O)(O)OP(=O)(O)O)[C@@H](O)[C@H]1O` [ATP] returned a Kd in experiment [1] of 22.3 µM. With `O=C(O)c1ccc2c(c1)nc(Nc1cccc(Cl)c1)c1ccncc12` [CX4945], 0.0132 µM corresponded to half-maximal inhibition in experiment [2] (IC50).

By Kd is commonly meant the equilibrium constant for the complex coming apart. Low values mean tighter binding, high ones weaker binding. As a reminder, the IC50 is the point on the concentration scale where inhibition reaches its midpoint. Low values mean higher potency, high ones lower potency.

The record behind these values is paper PMC5943518, “The protein kinase CK2 catalytic domain from Plasmodium falciparum: crystal structure, tyrosine kinase activity and inhibition” (Scientific Reports, 2018).
